Test results reported in US8969325B2, “TRPV1 antagonists” (AbbVie Inc., priority 2011, dated 2015).

How the values were obtained:
[1] = target: T1, human TRPV1 (Homo sapiens (Human), UniProt Q8NER1); test: Acid Activation Assay (pH 5.0, intracellular Ca2+, FLIPR); assay type: cell-based; conditions: percentage of the maximal pH 5.0-induced response remaining; recombinant HEK293 hTRPV1 cells; maximum concentration tested 37.5 μM
Summary of the method: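 HEK293 cells stably expressing recombinant hTRPV1, loaded with Calcium-4 dye 90-120 min at 25° C. Compounds added over a 12-point half-log range (top 37.5 μM), then pH 5.0 DPBS/MES challenge after 3 min; FLIPR peak fluorescence over baseline given as % of maximal pH 5.0 response.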

[2] = target: T1, human TRPV1; test: Capsaicin Activation Assay (intracellular Ca2+, FLIPR); assay type: cell-based; conditions: recombinant HEK293 cells expressing hTRPV1, 50 nM capsaicin
Summary of the method: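 Stably transfected HEK293 cells expressing human TRPV1 cDNA, plated the day before in poly-D-lysine plates. Compounds serially diluted from 10 mM DMSO stocks; intracellular Ca2+ fluorescence read on FLIPR at 1 to 5 second intervals.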

T1 sequence (Q8NER1 whole entry): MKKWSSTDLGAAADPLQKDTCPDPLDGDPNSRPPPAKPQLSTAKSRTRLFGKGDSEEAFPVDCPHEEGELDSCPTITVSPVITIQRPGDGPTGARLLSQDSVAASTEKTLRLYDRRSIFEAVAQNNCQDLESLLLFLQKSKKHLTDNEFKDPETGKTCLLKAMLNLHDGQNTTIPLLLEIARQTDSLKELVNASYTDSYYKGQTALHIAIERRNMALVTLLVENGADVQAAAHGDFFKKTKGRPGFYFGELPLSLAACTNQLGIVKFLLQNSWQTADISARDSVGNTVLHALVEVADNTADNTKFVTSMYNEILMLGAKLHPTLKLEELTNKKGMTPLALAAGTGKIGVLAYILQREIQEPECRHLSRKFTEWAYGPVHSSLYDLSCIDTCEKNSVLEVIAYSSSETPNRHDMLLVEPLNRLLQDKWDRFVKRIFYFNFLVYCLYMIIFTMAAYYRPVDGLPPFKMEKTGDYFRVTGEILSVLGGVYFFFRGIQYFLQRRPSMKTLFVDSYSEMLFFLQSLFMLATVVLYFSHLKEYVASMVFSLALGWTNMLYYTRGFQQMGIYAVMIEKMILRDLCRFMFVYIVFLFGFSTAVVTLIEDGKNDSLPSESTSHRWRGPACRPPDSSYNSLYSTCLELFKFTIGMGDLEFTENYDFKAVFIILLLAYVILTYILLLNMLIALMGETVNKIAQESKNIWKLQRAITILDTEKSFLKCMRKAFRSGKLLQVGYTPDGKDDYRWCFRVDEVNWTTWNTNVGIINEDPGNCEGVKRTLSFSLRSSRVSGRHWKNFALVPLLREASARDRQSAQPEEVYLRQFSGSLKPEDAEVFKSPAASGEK

human TRPV1 H^+ (max % remain) [1] | IC50 [2] | Structure (SMILES)
33% | 4200 nM | CN1C(=O)CCc2ccc(NC(=O)N[C@@H]3CC(C)(C)Oc4cc(Cl)ccc43)cc21 [Example 277, 1-[(4R)-7-chloro-2,2-dimethyl-3,4-dihydro-2H-chromen-4-yl]-3-(1-methyl-2-oxo-1,2,3,4-tetrahydroquinolin-7-yl)urea]
51% | 2500 nM | Cn1c(=O)ccc2c(NC(=O)N[C@H]3CC4(CCC4)Oc4ccc(F)cc43)cccc21 [Example 88, 1-[(4S)-6-fluoro-3,4-dihydrospiro[chromene-2,1′-cyclobutan]-4-yl]-3-(1-methyl-2-oxo-1,2-dihydroquinolin-5-yl)urea]
68% | 960 nM | CN1C(=O)CCc2ccc(NC(=O)N[C@@H]3CC(CF)(CF)Oc4ccccc43)cc21 [Example 280, 1-[(4R)-2,2-bis(fluoromethyl)-3,4-dihydro-2H-chromen-4-yl]-3-(1-methyl-2-oxo-1,2,3,4-tetrahydroquinolin-7-yl)urea]
101% | 180 nM | CCC1(CC)C[C@@H](NC(=O)Nc2ccc3c(c2)N(C)C(=O)CC3)c2ccc(OC(F)(F)F)cc2O1 [Example 272, 1-[(4R)-2,2-diethyl-7-(trifluoromethoxy)-3,4-dihydro-2H-chromen-4-yl]-3-(1-methyl-2-oxo-1,2,3,4-tetrahydroquinolin-7-yl)urea]
45% | 11 nM | Cn1c(=O)ccc2c(NC(=O)N[C@@H]3C[C@](C)(C(F)(F)F)Oc4ccccc43)cccc21 [Example 90, 1-(1-methyl-2-oxo-1,2-dihydroquinolin-5-yl)-3-[(2R,4R)-2-methyl-2-(trifluoromethyl)-3,4-dihydro-2H-chromen-4-yl]urea]
32% | 19 nM | Cn1c(=O)ccc2c(NC(=O)N[C@@H]3CC4(CCC4)Oc4ccc(F)cc43)cccc21 [Example 73, 1-[(4R)-6-fluoro-3,4-dihydrospiro[chromene-2,1′-cyclobutan]-4-yl]-3-(1-methyl-2-oxo-1,2-dihydroquinolin-5-yl)urea]
104% | 240 nM | O=C1COc2ccc(NC(=O)N[C@@H]3CC4(CCC4)Oc4ccc(F)cc43)cc2N1 [Example 108, 1-[(4R)-6-fluoro-3,4-dihydrospiro[chromene-2,1′-cyclobutan]-4-yl]-3-(3-oxo-3,4-dihydro-2H-1,4-benzoxazin-6-yl)urea]
37% | 28 nM | Cn1c(=O)ccc2c(NC(=O)N[C@@H]3CC4(CCCC4)Oc4ccccc43)cccc21 [Example 65, 1-[(4R)-3,4-dihydrospiro[chromene-2,1′-cyclopentan]-4-yl]-3-(1-methyl-2-oxo-1,2-dihydroquinolin-5-yl)urea]
69% | 170 nM | CCCC1(CCC)C[C@@H](NC(=O)Nc2ccc3c(c2)N(C)C(=O)CC3)c2cccc(F)c2O1 [Example 271, 1-[(4R)-8-fluoro-2,2-dipropyl-3,4-dihydro-2H-chromen-4-yl]-3-(1-methyl-2-oxo-1,2,3,4-tetrahydroquinolin-7-yl)urea]
37% | 350 nM | CC1(C)C[C@@H](NC(=O)Nc2ccc3c(c2)NC(=O)CC3)c2ccc(F)c(Cl)c2O1 [Example 233, 1-[(4R)-8-chloro-7-fluoro-2,2-dimethyl-3,4-dihydro-2H-chromen-4-yl]-3-(2-oxo-1,2,3,4-tetrahydroquinolin-7-yl)urea]
74% | 12 nM | Cn1c(=O)ccc2c(NC(=O)N[C@@H]3C[C@@](C)(CF)Oc4cc(Cl)ccc43)cccc21 [Example 41, 1-[(2S,4R)-7-chloro-2-(fluoromethyl)-2-methyl-3,4-dihydro-2H-chromen-4-yl]-3-(1-methyl-2-oxo-1,2-dihydroquinolin-5-yl)urea]

Further lines, the molecule ahead of its results:

Structure (SMILES) | human TRPV1 H^+ (max % remain) [1] | IC50 [2]
CN1C(=O)CCc2ccc(NC(=O)N[C@@H]3C[C@](C)(C(F)(F)F)Oc4ccccc43)cc21 [Example 326, 1-(1-methyl-2-oxo-1,2,3,4-tetrahydroquinolin-7-yl)-3-[(2R,4R)-2-methyl-2-(trifluoromethyl)-3,4-dihydro-2H-chromen-4-yl]urea] | 80% | 32 nM
O=C(Nc1ccc2c(c1)NC(=O)N(CCO)C2)N[C@@H]1CC(CF)(CF)Oc2cc(C(F)(F)F)ccc21 [Example 309, 1-[(4R)-2,2-bis(fluoromethyl)-7-(trifluoromethyl)-3,4-dihydro-2H-chromen-4-yl]-3-[3-(2-hydroxyethyl)-2-oxo-1,2,3,4-tetrahydroquinazolin-7-yl]urea] | 36% | 18000 nM
CN1C(=O)CCc2ccc(NC(=O)N[C@@H]3CC(C)(C)Oc4nc(C(F)(F)F)ccc43)cc21 [Example 295, 1-[(4R)-2,2-dimethyl-7-(trifluoromethyl)-3,4-dihydro-2H-pyrano[2,3-b]pyridin-4-yl]-3-(1-methyl-2-oxo-1,2,3,4-tetrahydroquinolin-7-yl)urea] | 67% | 99 nM
O=C1CCc2ccc(NC(=O)N[C@@H]3CCOc4ccccc43)cc2N1 [Example 220, 1-[(4R)-3,4-dihydro-2H-chromen-4-yl]-3-(2-oxo-1,2,3,4-tetrahydroquinolin-7-yl)urea] | 41% | 190 nM
CN1C(=O)CCc2ccc(NC(=O)N[C@@H]3CC(CF)(CF)Oc4cc(F)ccc43)cc21 [Example 296, 1-[(4R)-7-fluoro-2,2-bis(fluoromethyl)-3,4-dihydro-2H-chromen-4-yl]-3-(1-methyl-2-oxo-1,2,3,4-tetrahydroquinolin-7-yl)urea] | 68% | 130 nM
COCCN(C)C1Cc2ccc(NC(=O)N[C@@H]3CC(C)(C)Oc4cc(F)ccc43)cc2NC1=O (stereo partly drawn) [Example 305, 1-[(4R)-7-fluoro-2,2-dimethyl-3,4-dihydro-2H-chromen-4-yl]-3-{3-[(2-methoxyethyl)(methyl)amino]-2-oxo-1,2,3,4-tetrahydroquinolin-7-yl}urea] | 26% | 2000 nM
CCC1(CC)C[C@@H](NC(=O)Nc2cccc3c2CNC(=O)N3C)c2cccc(F)c2O1 [Example 139, 1-[(4R)-2,2-diethyl-8-fluoro-3,4-dihydro-2H-chromen-4-yl]-3-(1-methyl-2-oxo-1,2,3,4-tetrahydroquinazolin-5-yl)urea] | 27% | 12 nM
C[C@@]1(C(F)(F)F)C[C@@H](NC(=O)Nc2ccc3c(c2)NC(=O)CC3)c2ccccc2O1 [Example 245, 1-[(2S,4R)-2-methyl-2-(trifluoromethyl)-3,4-dihydro-2H-chromen-4-yl]-3-(2-oxo-1,2,3,4-tetrahydroquinolin-7-yl)urea] | 28% | 280 nM
Cn1c(=O)ccc2c(NC(=O)N[C@@H]3CC(C)(C)Oc4c3cccc4C(F)(F)F)cccc21 [Example 93, 1-[(4R)-2,2-dimethyl-8-(trifluoromethyl)-3,4-dihydro-2H-chromen-4-yl]-3-(1-methyl-2-oxo-1,2-dihydroquinolin-5-yl)urea] | 47% | 39 nM
CN1C(=O)NCc2c(NC(=O)N[C@@H]3CC(C)(C)Oc4cc(F)ccc43)cccc21 [Example 1, 1-[(4R)-7-fluoro-2,2-dimethyl-3,4-dihydro-2H-chromen-4-yl]-3-(1-methyl-2-oxo-1,2,3,4-tetrahydroquinazolin-5-yl)urea] | 25% | 10 nM
O=C1CCc2ccc(NC(=O)N[C@@H]3CC4(CCCC4)Oc4ccccc43)cc2N1 [Example 244, 1-[(4R)-3,4-dihydrospiro[chromene-2,1′-cyclopentan]-4-yl]-3-(2-oxo-1,2,3,4-tetrahydroquinolin-7-yl)urea] | 41% | 7100 nM
O=C1COc2ccc(NC(=O)N[C@@H]3CC4(CCCC4)Oc4ccccc43)cc2N1 [Example 124, 1-[(4R)-3,4-dihydrospiro[chromene-2,1′-cyclopentan]-4-yl]-3-(3-oxo-3,4-dihydro-2H-1,4-benzoxazin-6-yl)urea] | 97% | 1600 nM
Cn1c(=O)ccc2c(NC(=O)N[C@@H]3C[C@@](C)(C(F)(F)F)Oc4ccccc43)cccc21 [Example 25, 1-(1-methyl-2-oxo-1,2-dihydroquinolin-5-yl)-3-[(2S,4R)-2-methyl-2-(trifluoromethyl)-3,4-dihydro-2H-chromen-4-yl]urea] | 65% | 18 nM
CN1Cc2ccc(NC(=O)N[C@@H]3CC(CF)(CF)Oc4c3ccc(Cl)c4F)cc2NC1=O [Example 192, 1-[(4R)-7-chloro-8-fluoro-2,2-bis(fluoromethyl)-3,4-dihydro-2H-chromen-4-yl]-3-(3-methyl-2-oxo-1,2,3,4-tetrahydroquinazolin-7-yl)urea] | 53% | 280 nM
Cn1c(=O)ccc2c(NC(=O)N[C@@H]3CCc4cc(F)ccc43)cccc21 [Example 83, 1-[(1R)-5-fluoro-2,3-dihydro-1H-inden-1-yl]-3-(1-methyl-2-oxo-1,2-dihydroquinolin-5-yl)urea] | 36% | 19 nM
O=C(Nc1ccc2c(c1)NC(=O)C(N1CCOCC1)C2)N[C@@H]1CC(CF)(CF)Oc2cc(Cl)ccc21 (stereo partly drawn) [Example 300, 1-[(4R)-7-chloro-2,2-bis(fluoromethyl)-3,4-dihydro-2H-chromen-4-yl]-3-[3-(morpholin-4-yl)-2-oxo-1,2,3,4-tetrahydroquinolin-7-yl]urea] | 75% | 62 nM
